Experimental data taken from ChEMBL document CHEMBL1150840, “Onnamide F: a new nematocide from a southern Australian marine sponge, Trachycladus laevispirulifer” (2001).
The source made the active and inactive calls. The calls are words filed in the database; no cut-off is given here.

How the values were obtained:
[1] = system: Haemonchus contortus; assay: Nematocidal activity against Haemonchus contortus; format: functional
[2] = system: Saccharomyces cerevisiae; assay: Antifungal activity against Saccharomyces cerevisiae; format: functional
[3] = system: Bacillus subtilis; assay: Antibacterial activity against Bacillus subtilis; format: functional, organism-based
[4] = system: Escherichia coli; assay: Antibacterial activity against Escherichia coli; format: functional, organism-based
[5] = system: Haemonchus contortus; assay: Nematocidal activity against Haemonchus contortus assessed as inhibition of larval development at L1 stage at high concentration; format: functional, organism-based

## C=C1C[C@](OC)([C@H](O)C(=O)N[C@@H](OC)[C@@H]2C[C@@H](OC)C(C)(C)[C@@H](CC(O)CCC/C=C/C=C/C(=O)OC)O2)O[C@H](C)[C@@H]1C (some centres not stated) [ONNAMIDE F METHYL ESTER]
[1]
  LD99: 2.6 µg/mL
[2]
  LD99: 5.2 µg/mL

## C=C1C[C@](OC)([C@H](O)C(=O)N[C@@H](OC)[C@@H]2C[C@@H](OC)C(C)(C)[C@@H](CC(O)CCC/C=C/C=C/C(=O)O)O2)O[C@H](C)[C@@H]1C (some centres not stated) [ONNAMIDE F]
[1]
  LD99: 5.2 µg/mL
[2]
  LD99: 1.4 µg/mL
[3]
  Activity: inactive
[4]
  Activity: inactive
[5]
  inhibition: Active
